This is an account of results in patent publication US9814789B2, “Radiopharmaceutical products for diagnosis and therapy of adrenal carcinoma” (JULIUS-MAXIMILIANS-UNIVERSITÄT WÜRZBURG, priority 2012, dated 2017).

Data set [1] has as its target T1, human Cyp11B2, aldosterone synthase (Homo sapiens, UniProt P19099).
T1 construct: the full-length cDNAs for the proteins were subcloned into the multicloning site of pcDNA3.1 (zeo); expressed in transfected cells
T1 sequence (P19099 25-503): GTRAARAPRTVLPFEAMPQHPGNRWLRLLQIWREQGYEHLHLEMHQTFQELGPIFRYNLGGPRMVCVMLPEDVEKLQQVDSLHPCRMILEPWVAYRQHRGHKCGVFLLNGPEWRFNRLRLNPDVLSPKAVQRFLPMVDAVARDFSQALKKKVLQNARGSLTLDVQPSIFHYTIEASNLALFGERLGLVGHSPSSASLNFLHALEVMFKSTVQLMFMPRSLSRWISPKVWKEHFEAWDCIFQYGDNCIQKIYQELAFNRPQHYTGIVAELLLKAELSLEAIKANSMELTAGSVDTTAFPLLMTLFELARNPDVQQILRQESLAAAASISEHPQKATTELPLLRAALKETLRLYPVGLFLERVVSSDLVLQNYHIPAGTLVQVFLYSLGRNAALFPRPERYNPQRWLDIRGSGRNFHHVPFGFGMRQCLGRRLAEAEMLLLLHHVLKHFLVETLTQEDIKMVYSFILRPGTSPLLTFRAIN
In words: Cyp11B2 (aldosterone synthase) inhibition in stably transfected Y1-Cyp11B2 cells, substrate 11-deoxycorticosterone (DOC). Type of data set: cell-based. An excerpt: (§1) Plasmid constructs and transfection: To induce expression of human cytochrome P450 family 11B1 (Cyp11B1) and Cyp11B2 enzymes in Y1 cells, the full-length cDNAs for the proteins were subcloned into the multicloning site of pcDNA3.1 (zeo) (Invitrogen, Eggenstein, Germany). The cDNA fragments were isolated by PCR and digested by EcoRI. The individual fragments were ligated into the linearized vectors digested by EcoRI. Human Cyp11B1 and Cyp11B2 enzymes were expressed in Y1 cells using liposome/lipid-mediated DNA transfection. Purified plasmid DNA was mixed with Lipofectamine (Invitrogen) transfection reagents according to the manufacturer's protocol. To generate a stable Y1-Cyp11B1 and Y1-Cyp11B2 cell line, Y1 cells were transfected with the pcDNA3.1 (zeo)-Cyp11B1 and pcDNA3.1 (zeo)-Cyp11B2 vector, respectively.
(§2) Transfected cells were selected with 1000 μg/ml zeocin (Invitrogen). To screen colonies, Western blotting and real-time PCR were used to determine the level of Cyp11B1 and Cyp11B2 expression. Colonies with the highest Cyp11B expression were further tested for their ability to synthesize cortisol or aldosterone from deoxycortisol (RSS) and 11-deoxycorticosterone (DOC), respectively. Experimental protocols were standardized regarding substrate concentrations and incubation periods.
The enzyme reaction was started after 24 hours by the addition of 1 ml culture medium containing either 11-deoxycortisol (RSS) or 11-deoxycorticosterone (DOC) as substrate and the corresponding inhibitor. RSS and DOC were dissolved in ethanol to a final test concentration of 1 μM. […] Y1-Cyp11B1 and Y1-Cyp11B2 cells, which were treated in the same way but without inhibitors, served as controls. As further controls, untransfected Y1 cells were also incubated with RSS and DOC, respectively. Both RSS and DOC were obtained from Sigma (Deisenhofen, Germany).

Data set [2] relates to adrenal gland and other organs. In words: Biodistribution in mice. Particulars: male CD-1 mice, i.v. 37 kBq, 15 min to 4 h. Type of data set: in vivo. The protocol:
The biodistribution of IMTO, (R)-1-[1-(4-iodophenyl)ethyl]-1H-imidazole-5-carboxylic acid ethyl-methyl amide (compound 2a) and (R)-1-[1-(4-iodophenyl)ethyl]-1H-imidazole-5-carboxylic acid azetidinylamide (compound 2e) has been assessed in mice as follows. Male CD-1 mice were injected iv with 1 μCi (37 kBq) (R)-1-[1-(4-[^125I]iodophenyl)ethyl]-1H-imidazole-5-carboxylic acid ethyl-methyl amide. At predefined time points (15 min, 30 min, 2 h, and 4 h), mice were killed (n 6 per time point). Blood was collected, and heart, lung, liver, intestine, stomach, spleen, kidneys, adrenals, testes, brain and other organs were excised and weighed. Radioactivity was measured using a gamma-counter.

A further data set relates to adrenal glands. In words: Uptake in adrenal glands in mice, ex vivo gamma counting. Conditions: male CD-1 mice; for uptake in adrenal glands compared to IMTO: i.v. 1 μCi (37 kBq), 15, 30, 120 and 240 min, 2a especially after 120 and 240 minutes, 2e at any time point. The protocol:
The uptake of IMTO, (R)-1-[1-(4-iodophenyl)ethyl]-1H-imidazole-5-carboxylic acid ethyl-methyl amide (compound 2a) and (R)-1-[1-(4-iodophenyl)ethyl]-1H-imidazole-5-carboxylic acid azetidinylamide (compound 2e) in adrenal glands in mice in ex vivo experiments has been examined as follows. Male CD-1 mice were injected i.v. with 1 μCi (37 kBq) IMTO, (R)-1-[1-(4-[^125I]iodophenyl)ethyl]-1H-imidazole-5-carboxylic acid ethyl-methyl amide or (R)-1-[1-(4-iodophenyl)ethyl]-1H-imidazole-5-carboxylic acid azetidinylamide (compound 2e). At predefined time points (15 min, 30 min, 120 min, and 240 min) mice were killed (n≧6 per time point) and adrenals were excised and weighed. Radioactivity was measured using a gamma-counter.

Data set [3] addresses T2, human cytochrome P450 family 11B1 (Cyp11B1), 11β-hydroxylase (Homo sapiens, UniProt P15538).
T2 construct: the full-length cDNAs for the proteins were subcloned into the multicloning site of pcDNA3.1 (zeo); expressed in transfected cells
T2 sequence (P15538 25-503): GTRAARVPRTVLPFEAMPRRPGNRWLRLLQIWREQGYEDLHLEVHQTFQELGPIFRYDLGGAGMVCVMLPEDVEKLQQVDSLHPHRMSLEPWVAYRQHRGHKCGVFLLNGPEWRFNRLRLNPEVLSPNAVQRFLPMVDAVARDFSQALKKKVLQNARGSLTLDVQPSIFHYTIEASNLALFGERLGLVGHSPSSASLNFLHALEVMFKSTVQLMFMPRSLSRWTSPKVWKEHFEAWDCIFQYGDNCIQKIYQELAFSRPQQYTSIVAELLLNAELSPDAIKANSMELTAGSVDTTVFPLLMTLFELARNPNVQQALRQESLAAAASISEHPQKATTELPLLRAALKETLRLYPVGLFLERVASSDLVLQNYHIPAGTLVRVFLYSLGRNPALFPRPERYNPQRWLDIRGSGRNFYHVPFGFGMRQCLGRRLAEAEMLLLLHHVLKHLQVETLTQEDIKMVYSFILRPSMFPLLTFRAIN
In words: Cyp11B1 (11β-hydroxylase) inhibition in stably transfected Y1-Cyp11B1 cells, substrate 11-deoxycortisol (RSS). The class given is cell-based.
From the text: as §1, §2
In vitro evaluation of specificity: To evaluate Cyp11B1 and Cyp11B2 inhibition by the inventive compounds, Y1-Cyp11B1 and Y1-Cyp11B2 cells were subcultured on six-well plates (0.5×10^6 cells per well) in 2 ml culture medium.
The enzyme reaction was started after 24 hours by the addition of 1 ml culture medium containing either 11-deoxycortisol (RSS) or 11-deoxycorticosterone (DOC) as substrate and the corresponding inhibitor. RSS and DOC were dissolved in ethanol to a final test concentration of 1 μM. For determination of IC50 values, the inhibitors were added to the culture medium at concentrations between 0.6 nM and 60 μM and incubated for 48 h. Y1-Cyp11B1 and Y1-Cyp11B2 cells, which were treated in the same way but without inhibitors, served as controls. As further controls, untransfected Y1 cells were also incubated with RSS and DOC, respectively. Both RSS and DOC were obtained from Sigma (Deisenhofen, Germany).

Data set [4] can be described thus: Metabolization of IMTO in the blood of patients. Particulars: iodometomidate acid identified after few minutes as product of enzymatic hydrolysis.
In a further data set the target is T3, Cyp11B1 (Homo sapiens, UniProt P15538).
T3 sequence (P15538 25-503): T2 sequence (P15538 25-503)
Conditions: in contrast to IMTO; cited from earlier work.

The next data set deals with T4, CYP11B2 (Homo sapiens, UniProt P19099).
T4 sequence (P19099 25-503): T1 sequence (P19099 25-503)
Conditions: in contrast to IMTO; cited from earlier work.

A further data set has as its system adrenocortical carcinoma. Particulars: advanced disease, retrospective analyses; cited from earlier work.
[5] abbreviates: Y1-Cyp11B2 cells, 1 μM DOC, 48 h incubation, read-out: IC50 aldosterone synthase.
The mark [6] stands for this setting: Y1-Cyp11B1 cells, 1 μM RSS, 48 h incubation, read-out: IC50 11β-hydroxylase.

Read-outs that look alike come from different tables or passages of the source.

For `CCN(C)C(=O)c1cncn1[C@H](C)c1ccc(I)cc1` [2a, (R)-1-[1-(4-Iodophenyl)ethyl]-1H-imidazole-5-carboxylic acid ethylmethylamide], the IC50 (as a rule, the midpoint of a concentration-inhibition curve) in data set [1] is 4.2 ± 0.37 nM; in data set [3], 3.9 ± 0.6 nM. Also, the “biodistribution: organ of predominant uptake” value in data set [2] is reported as “predominately in adrenal gland”. Moreover, the “uptake in adrenal glands compared to IMTO” value with adrenal glands was “increased”.
For the molecule `CCN(CC)C(=O)c1cncn1[C@H](C)c1ccc(I)cc1` [2b], the results for the IC50 in data set [1] and in data set [3] were 10.9 ± 2.02 nM and 36.6 nM, respectively.
`C[C@H](c1ccc(I)cc1)n1cncc1C(=O)N1CCC1` [2e, (R)-1-[1-(4-Iodophenyl)ethyl]-1H-imidazole-5-carboxylic acid azetidinylamide]: the IC50 in data set [1] amounted to 1.22 ± 0.08 nM; in data set [3] it was 3.16 ± 0.14 nM. In addition, in data set [2], the “biodistribution: organ of predominant uptake” value was “predominately in adrenal gland”. The “uptake in adrenal glands compared to IMTO” value with adrenal glands is reported as “greatly increased”. Also, the “factor of increase of adrenal uptake compared to IMTO” value with adrenal glands (i.v., after 240 minutes) was “about 10”.
On to `C[C@H](c1ccc(I)cc1)n1cncc1C(=O)N1CCCCC1` [2g], for which the figures for the IC50 in data set [1] (setting [5]) and in data set [3] (setting [6]) were 5.5 ± 2.2 nM and 11.7 nM, respectively.
Taken in the same sequence, the figures for `C[C@H](c1ccc(I)cc1)n1cncc1C(=O)N1CCOCC1` [2h] were 182 nM and 805 nM.
As for `C[C@H](c1ccc(I)cc1)n1cncc1C(=O)N(C)C` [2i], the IC50 in data set [1] was 15.7 nM; in data set [3], above 1000 nM.
Take `C[C@H](c1ccc(I)cc1)n1cncc1C(N)=O` [2j]: the IC50 in data set [1] was determined as 1410 ± 2070 nM; in data set [3] it was 329 ± 310 nM.
As for `C[C@H](c1ccc(I)cc1)n1cncc1C(=O)NCCO` [2k], the IC50 came to 221 ± 168 nM in data set [1] and 336 ± 398 nM in data set [3].
For `CCCN(C)C(=O)c1cncn1[C@H](C)c1ccc(I)cc1` [2l], the IC50 in data set [1] is 3.5 ± 7.5 nM; in data set [3], 74.7 nM.
In the case of `CC(C)N(C)C(=O)c1cncn1[C@H](C)c1ccc(I)cc1` [2m], the IC50 in data set [1] is 147 ± 61.9 nM; in data set [3] it was 78.2 nM.
With `CCCN(CC)C(=O)c1cncn1[C@H](C)c1ccc(I)cc1` [2n], the values for the IC50 in data set [1] and in data set [3] were 390 ± 170 nM and 1320 nM, respectively.
For `Cc1nnc(-c2cncn2[C@H](C)c2ccc(I)cc2)o1` [6a], the IC50 in data set [1] (setting [5]) amounted to 90.1 nM; in data set [3] (setting [6]) it was 10.6 ± 9.2 nM.
As to `COC(=O)c1cncn1[C@H](C)c1ccc(I)cc1` [iodometomidate (IMTO), 4-Iodometomidate, reference compound], the IC50 came to 2 ± 2.3 nM in data set [1] and 2.6 ± 1.1 nM in data set [3]. In addition, the “biological half-life in the blood of patients” value in data set [4] is reported as “very limited”.
In the case of `C[C@H](c1ccc(I)cc1)n1cncc1C(=O)O` [iodometomidate acid, (R)-1-[1-(4-Iodophenyl)ethyl]-1H-imidazole-5-carboxylic acid], the “affinity to Cyp11B1” value at Cyp11B1 was “little or no affinity”. Also, the “affinity to CYP11B2” value on CYP11B2 is “little or no affinity”.
For the molecule `Clc1ccc(C(c2ccccc2Cl)C(Cl)Cl)cc1` (centres unmarked) [mitotane], the overall response rate with adrenocortical carcinoma was 26%.
